Laboratory results as given in the NIST ThermoML archive (doi:10.1021/je049743g).
Where “and” joins values, the source holds several entries; their conditions need not be identical. Equal values may be shown once.

Experiment: wn = mass fraction of the nth substance listed
Conditions: Capillary rise

FC(C(F)(F)F)C(F)(F)F [1,1,1,2,3,3,3-heptafluoropropane] + FCF
Conditions	surface tension liquid-gas
293.83 K, w2 = 0.3843	6.74 mN/m
293.91 K, w2 = 0.7179	7.04 mN/m and 7.05 mN/m
295.16 K, w2 = 0.3381	6.6 mN/m
295.43 K, w2 = 0.2853	6.55 mN/m
295.48 K, w2 = 0.2853	6.53 mN/m
295.5 K, w2 = 0.7173	6.81 mN/m and 6.83 mN/m
295.61 K, w2 = 0.5282	6.53 mN/m
296.02 K, w2 = 0.3832	6.41 mN/m and 6.4 mN/m
296.82 K, w2 = 0.3372	6.36 mN/m
297.36 K, w2 = 0.3826	6.2 mN/m
297.42 K, w2 = 0.2844	6.35 mN/m and 6.32 mN/m
297.68 K, w2 = 0.5271	6.29 mN/m
297.86 K, w2 = 0.3366	6.21 mN/m
299.17 K, w2 = 0.3817	6.01 mN/m
299.22 K, w2 = 0.2835	6.13 mN/m and 6.1 mN/m
299.29 K, w2 = 0.3358	6.06 mN/m and 6.07 mN/m
299.5 K, w2 = 0.7156	6.17 mN/m
299.8 K, w2 = 0.5259	6.04 mN/m and 6.03 mN/m
301.27 K, w2 = 0.3346	5.76 mN/m
301.41 K, w2 = 0.2825	5.8 mN/m and 5.82 mN/m
301.58 K, w2 = 0.5249	5.78 mN/m and 5.77 mN/m
301.63 K, w2 = 0.7146	5.9 mN/m
301.75 K, w2 = 0.3803	5.66 mN/m and 5.69 mN/m
303.27 K, w2 = 0.3335	5.52 mN/m
303.33 K, w2 = 0.3795	5.49 mN/m and 5.54 mN/m
303.46 K, w2 = 0.2815	5.55 mN/m
303.55 K, w2 = 0.7137	5.59 mN/m
303.87 K, w2 = 0.5235	5.48 mN/m and 5.44 mN/m
305.17 K, w2 = 0.3785	5.35 mN/m and 5.33 mN/m
305.26 K, w2 = 0.3323	5.3 mN/m and 5.29 mN/m
305.28 K, w2 = 0.2805	5.35 mN/m and 5.37 mN/m
305.75 K, w2 = 0.7126	5.34 mN/m
306.29 K, w2 = 0.5221	5.16 mN/m and 5.13 mN/m
307.23 K, w2 = 0.3774	5.01 mN/m and 5.06 mN/m
307.24 K, w2 = 0.3311	5.08 mN/m
307.36 K, w2 = 0.7118	5.04 mN/m
307.39 K, w2 = 0.5214	4.94 mN/m
307.96 K, w2 = 0.2792	5.04 mN/m and 5.05 mN/m
309.18 K, w2 = 0.3299	4.8 mN/m
309.34 K, w2 = 0.2785	4.87 mN/m and 4.85 mN/m
309.43 K, w2 = 0.7107	4.7 mN/m
309.63 K, w2 = 0.3761	4.63 mN/m and 4.67 mN/m
309.81 K, w2 = 0.5198	4.64 mN/m and 4.63 mN/m
311.24 K, w2 = 0.3286	4.61 mN/m
311.26 K, w2 = 0.3752	4.45 mN/m and 4.48 mN/m
311.28 K, w2 = 0.7097	4.51 mN/m
311.62 K, w2 = 0.2773	4.59 mN/m and 4.55 mN/m
311.74 K, w2 = 0.5186	4.38 mN/m and 4.36 mN/m
313.21 K, w2 = 0.374	4.26 mN/m and 4.22 mN/m
313.22 K, w2 = 0.2764	4.42 mN/m
313.26 K, w2 = 0.7086	4.22 mN/m
313.35 K, w2 = 0.5175	4.15 mN/m and 4.17 mN/m
313.51 K, w2 = 0.3271	4.32 mN/m
315.28 K, w2 = 0.326	4.12 mN/m and 4.13 mN/m
315.3 K, w2 = 0.3728	4.06 mN/m and 4.09 mN/m
315.39 K, w2 = 0.7074	3.96 mN/m
315.43 K, w2 = 0.2752	4.14 mN/m and 4.13 mN/m
315.61 K, w2 = 0.5159	3.88 mN/m
317.24 K, w2 = 0.3247	3.88 mN/m
317.3 K, w2 = 0.7064	3.7 mN/m
317.43 K, w2 = 0.2742	3.91 mN/m and 3.89 mN/m
317.69 K, w2 = 0.5145	3.61 mN/m and 3.63 mN/m
318.29 K, w2 = 0.371	3.63 mN/m and 3.62 mN/m
319.25 K, w2 = 0.3234	3.64 mN/m
319.52 K, w2 = 0.705	3.38 mN/m
319.58 K, w2 = 0.273	3.7 mN/m and 3.67 mN/m
319.63 K, w2 = 0.3702	3.5 mN/m
320 K, w2 = 0.5129	3.33 mN/m and 3.32 mN/m
321.27 K, w2 = 0.3692	3.29 mN/m
321.3 K, w2 = 0.322	3.39 mN/m and 3.38 mN/m
321.31 K, w2 = 0.7039	3.12 mN/m
321.42 K, w2 = 0.5118	3.13 mN/m and 3.14 mN/m
321.54 K, w2 = 0.2719	3.45 mN/m and 3.42 mN/m
323.2 K, w2 = 0.3207	3.23 mN/m
323.5 K, w2 = 0.7025	2.88 mN/m and 2.87 mN/m
323.69 K, w2 = 0.2707	3.19 mN/m
323.72 K, w2 = 0.5102	2.92 mN/m
323.76 K, w2 = 0.3677	3.03 mN/m and 3.01 mN/m
325.23 K, w2 = 0.3193	3.04 mN/m
325.29 K, w2 = 0.3668	2.85 mN/m
325.3 K, w2 = 0.7013	2.63 mN/m
325.42 K, w2 = 0.2697	2.96 mN/m and 2.95 mN/m
325.89 K, w2 = 0.5085	2.57 mN/m and 2.59 mN/m
327.16 K, w2 = 0.2688	2.8 mN/m and 2.78 mN/m
327.31 K, w2 = 0.3656	2.59 mN/m and 2.58 mN/m
327.31 K, w2 = 0.7	2.43 mN/m and 2.44 mN/m
327.4 K, w2 = 0.3179	2.74 mN/m and 2.73 mN/m
327.68 K, w2 = 0.5072	2.37 mN/m and 2.38 mN/m
329.3 K, w2 = 0.3166	2.54 mN/m
329.34 K, w2 = 0.6987	2.15 mN/m and 2.16 mN/m
329.35 K, w2 = 0.5059	2.18 mN/m and 2.19 mN/m
329.37 K, w2 = 0.2676	2.6 mN/m and 2.59 mN/m
329.44 K, w2 = 0.3643	2.43 mN/m
331.47 K, w2 = 0.5043	2.01 mN/m
331.57 K, w2 = 0.315	2.24 mN/m
331.61 K, w2 = 0.6971	1.87 mN/m
331.65 K, w2 = 0.2663	2.36 mN/m and 2.37 mN/m
331.73 K, w2 = 0.3629	2.15 mN/m
333.37 K, w2 = 0.2654	2.19 mN/m
333.4 K, w2 = 0.3138	2.06 mN/m
333.48 K, w2 = 0.3618	1.95 mN/m
333.48 K, w2 = 0.6959	1.63 mN/m
333.55 K, w2 = 0.5028	1.75 mN/m and 1.72 mN/m
